In PMC2920546, “Preclinical Pharmacology of BA-TPQ, a Novel Synthetic Iminoquinone Anticancer Agent” (Marine Drugs, 2010):

Columns and labels:
[1] = Binding to mouse plasma proteins (micro-ultrafiltration); assay type: in vitro ADME; conditions: non-Swiss albino, pooled mouse plasma
Protocol: The extent of binding to mouse plasma proteins by BA-TPQ was determined using a micro-ultrafiltration system as previously described. BA-TPQ was dissolved in methanol and added to pooled mouse plasma to yield final concentrations of 0.5 μM and 5.0 μM. Control solutions were prepared in methanol to account for non-specific binding of BA-TPQ to the filter membranes. Duplicate preparations of each concentration were incubated at 37 °C for 1 h, before being placed into the sample reservoirs of Amicon Centrifree® ultrafiltration tubes (30 kDa exclusion; Millipore Corporation, Bedford, MA, USA). The filter systems were then centrifuged at 3000 g (37 °C) for 30 min or until no solution remained in the reservoir. Aliquots were taken from each filtrate and analyzed using the validated HPLC method. The concentrations of the unfiltered plasma and control preparations were also determined using the same protocol and expressed as the “total drug” (T) present, while the amounts of BA-TPQ present in the filtrates were designated as “free drug” (F). The percentage of BA-TPQ bound to plasma proteins was calculated as follows:
(1) Percent Bound=[(T-F)/T]×100

[2] = Pharmacokinetics and tissue distribution in CD-1 mice; assay type: in vivo
Protocol: (§1) Female ICR/CD-1 (18–20 g) mice were purchased from Harlan Laboratories (Indianapolis, IN), and female nude mice (nu/nu; 4–6 weeks) were purchased from Frederick Cancer Research and Development Center (Frederick, MD). All animal use and care procedures were approved by the Institutional Animal Care and Use Committee (IACUC) of the University of Alabama at Birmingham. All animals were fed with commercial diet and water ad libitum and were on an alternating 12 h light/dark cycle.
(§2) CD-1 and nude mice were randomly divided into groups of three, and were dosed either intravenously (5 mg/kg) or intraperitoneally (10 mg/kg) with BA-TPQ in PEG 400:ethanol:0.9% saline (57.1%:14.3%:28.6%). Before dosing, and at 5, 15, 30, 60 min, and 2, 4, 8, and 24 h after dosing, groups of animals (three/time point) were anesthetized, and blood was collected from the retro-orbital sinus into heparinized tubes. Plasma was obtained by centrifuging the blood samples at 14,000 rpm for 15 min. BA-TPQ was then extracted from plasma and stored at −80 °C. The brain, heart, kidneys, liver, lungs, and spleen were also collected at the same time points during necropsy, blotted on Whatman No. 1 filter paper, trimmed of extraneous fat and connective tissue, weighed, and homogenized in phosphate-buffered saline. The resulting homogenates were stored at −80 °C until further processing and analysis. Urine and feces were collected for 24 hr from mice housed in metabolic cages. After collection, the cages were also washed twice with 200 μL PBS, and the washes were collected and analyzed separately. The total urine was determined as the amount from the urine plus washes 1 and 2. Feces were homogenized in PBS, then extracted using the same procedure used for tissues.
(§3) Six hundred microliters of acetonitrile was added to 200 μL of plasma, urine, cage washes (first and second), or tissue/feces homogenate in an Eppendorf tube to precipitate proteins. After centrifugation at 14,000 rpm for 10 min, the supernatant was transferred to a glass tube and evaporated to dryness using a TurboVap® LV Concentration Workstation (Caliper Lifesciences, Hopkinton, MA). The residue was reconstituted with 500 μL ethyl acetate, sonicated for 10 min, and vortexed for 10 sec. Samples were then centrifuged again and the resulting supernatant was transferred to a new glass tube and evaporated to dryness. Finally, samples were reconstituted in 100 μL mobile phase, and 50 μL was injected into the HPLC system for analysis.
(§4) The averages of the BA-TPQ concentration in plasma and tissues following intravenous and intraperitoneal administration to three animals per time point were used for pharmacokinetic analyses using a two-compartmental model and a non-compartment model, respectively. The following pharmacokinetic parameters were estimated using Phoenix WinNonlin 6.0 (Mountain View, CA): area under the concentration-time curve (AUC, h·μg/mL), half-life (T½, h), maximum concentration (Cmax, μg/mL), time of the maximum concentration (Tmax, h), and clearance (CL, mL/h/kg), as applicable. Bioavailability (X) was calculated as X= [AUCip × doseiv]/[AUCiv × doseip].

[3] = Pharmacokinetics, excretion and strain comparison stated for CD-1 and nude mice together; assay type: in vivo
Protocol: as §1, §2, §3, §4

[4] = female, ICR/CD-1, mouse, liver, IV 5 mg/kg
[5] = female, ICR/CD-1, mouse, lungs, IP 10 mg/kg
[6] = female, ICR/CD-1, mouse, lungs, IV 5 mg/kg
[7] = female, mouse, brain, IP 10 mg/kg
[8] = female, mouse, brain, IV 5 mg/kg
[9] = female, mouse, heart, IP 10 mg/kg
[10] = female, mouse, heart, IV 5 mg/kg
[11] = female, mouse, kidneys, IP 10 mg/kg
[12] = female, mouse, kidneys, IV 5 mg/kg
[13] = female, mouse, liver, IP 10 mg/kg
[14] = female, mouse, lungs, IV 5 mg/kg
[15] = female, mouse, plasma, IP 10 mg/kg
[16] = female, mouse, plasma, IV 5 mg/kg
[17] = female, mouse, spleen, IP 10 mg/kg
[18] = female, mouse, spleen, IV 5 mg/kg
[19] = IV 5 mg/kg, both strains, 24 hr collection

## O=C1C(NCc2ccccc2)=CC2=NCCc3c[nH]c1c32 [BA-TPQ, 7-(benzylamino)-1,3,4,8-tetrahydropyrrolo[4,3,2-de]quinolin-8(1H)-one]
[1]; mouse, read-out: Bound to plasma proteins (overall) (converted)
  fraction unbound at 1 h: ~0.3
[1]; mouse plasma, 0.5 μM, read-out: Bound to plasma proteins (converted)
  fraction unbound at 1 h, 0.5 μM: 0.37
[1]; mouse plasma, 5.0 μM, read-out: Bound to plasma proteins (converted)
  fraction unbound at 1 h, 5 μM: 0.26
[2]; IP 10 mg/kg
  Time of greatest plasma concentration: 15 min
[2]; brain, IP 10 mg/kg
  Cl: 2920 mL/min/kg
[2]; [4]
  AUC: 650 ng·h/mL
  Cmax: 690 ng/mL
  clearance: 900 mL/min/kg
  half-life: 39 min
[2]; [5]
  AUC: 9150 ng·h/mL
  Cmax: 12400 ng/mL
  Tmax: 4.8 min
  half-life: 30 min
[2]; [6]
  AUC: 4980 ng·h/mL
  clearance: 117 mL/min/kg
[2]; [7]
  AUC: 190 ng·h/mL
  Cmax: 180 ng/mL
  Tmax: 15 min
  half-life: 49.8 min
[2]; [8]
  AUC: 220 ng·h/mL
  Cmax: 750 ng/mL
  clearance: 2630 mL/min/kg
  half-life: 12.6 min
[2]; [9]
  AUC: 4660 ng·h/mL
  Cmax: 7240 ng/mL
  Tmax: 4.8 min
  half-life: 42.6 min
[2]; [10]
  AUC: 1020 ng·h/mL
  Cmax: 5340 ng/mL
  clearance: 567 mL/min/kg
  half-life: 7.8 min
[2]; [11]
  AUC: 8060 ng·h/mL
  Cmax: 8360 ng/mL
  Tmax: 15 min
  half-life: 28.8 min
[2]; [12]
  AUC: 2830 ng·h/mL
  Cmax: 9680 ng/mL
  clearance: 200 mL/min/kg
  half-life: 12 min
[2]; [13]
  AUC: 150 ng·h/mL
  Cmax: 470 ng/mL
  Tmax: 4.8 min
  half-life: 14.4 min
[2]; [14]
  Cmax: 13000 ng/mL
  half-life: 15.6 min
[2]; [15]
  AUC: 110 ng·h/mL
  Cmax: 110 ng/mL
  Tmax: 4.8 min
  half-life: 51.6 min
[2]; female, mouse, plasma, IP 10 mg/kg vs IV 5 mg/kg, read-out: Intraperitoneal bioavailability
  bioavailability: 74%
[2]; [16]
  AUC: 70 ng·h/mL
  Cmax: 360 ng/mL
  clearance: 8200 mL/min/kg
  half-life: 8.4 min
[2]; [17]
  AUC: 11300 ng·h/mL
  Cmax: 23000 ng/mL
  Tmax: 4.8 min
  half-life: 24.6 min
[2]; [18]
  AUC: 1800 ng·h/mL
  Cmax: 4590 ng/mL
  clearance: 317 mL/min/kg
  half-life: 16.2 min
[2]; heart, IP 10 mg/kg
  Cl: 130 mL/min/kg
[2]; kidneys, IP 10 mg/kg
  Cl: 67 mL/min/kg
[2]; liver, IP 10 mg/kg
  Cl: 4100 mL/min/kg
[2]; lungs, IP 10 mg/kg
  Cl: 67 mL/min/kg
[2]; plasma, IP 10 mg/kg
  Cl: 5750 mL/min/kg
[2]; single bolus IV 5 mg/kg
  Concentration in the plasma for the first 30 minutes: up to 0.18 μg/mL
[2]; spleen, IP 10 mg/kg
  Cl: 50 mL/min/kg
[3]; IP 10 mg/kg
  Amount excreted in the feces: less than 1%
[3]; IP 10 mg/kg, first 24 h after dosing
  Amount excreted in the urine: less than 0.02 % of the administered dose
[3]; IP injection
  AUC in the brain, nude mice versus CD-1 mice: ~ 5 fold
  Accumulation in the liver, nude mice versus CD-1 mice: ~ 18 fold
[3]; IV 5 mg/kg, both CD-1 and nude mice
  Detectability in the lungs at 24 h: still detectable
[3]; [19]
  Amount excreted in feces: less than 1 % of the administered dose
  Amount excreted in the urine: less than 0.1 % of the administered dose
[3]; IV 5 mg/kg, either strain of mice
  Detectability in plasma: no longer detectable in plasma after 2 h
[3]; IV injection
  Exposure of the heart (AUC), nude mice versus CD-1 mice: approximately 6 fold
[3]; female, CD-1 and nude (nu/nu), mouse, plasma, ip, 10 mg/kg, mice, IP injection, read-out: Intraperitoneal bioavailability (authors' overall estimate)
  bioavailability: ~70%
[3]; mice
  Blood-brain barrier passage (AUC in brain comparable to plasma): can cross the blood-brain barrier
[3]; mice, IP injection
  Intraperitoneal bioavailability (authors' overall estimate): > 70%
